Measured values taken from publication PMC12362783 (Advanced Science, 2025).

Assays:
[1] = system: MDA‐MB‐231; test: Cell growth inhibition, CellTiter‐Glo (CTG); format: cell-based; settings: Homo sapiens, MDA-MB-231, 120 h, read-out: IC50 MDA‐MB‐231; CTG, 5 days, n = 3
Experimental: (§1) All cells were grown in a humidified incubator at 37 °C and 5% CO2.
(§2) […] […] Relative viability was calculated by normalizing the raw luminescence counts of the treated groups to those of the DMSO control groups. IC₅₀ values were calculated using sigmoidal dose‐response curve fitting with GraphPad Prism 9.0 software.

[2] = system: MDA‐MB‐468; test: Cell growth inhibition, CellTiter‐Glo (CTG); format: cell-based; settings: Homo sapiens, MDA-MB-468, 120 h; CTG, 5 days, n = 3
Experimental: as §1, §2

[3] = system: MDA‐MB‐436; test: Cell growth inhibition, CellTiter‐Glo (CTG); format: cell-based; settings: for inhibition at 5 µM: MDA-MB-436, read-out: MDA‐MB‐436 inhibitory rate at certain concentration; for IC50: CTG, 5 days, n = 3
Experimental: as §1
(§3) Growth viability was determined by the CellTiter‐Glo luminescent viability assay (Promega) 5 days after drug treatment. Cell viability was measured immediately after dosing (Day 0) and after 5 days of incubation using CellTiter‐Glo (CTG, Promega, G7573). Relative viability was calculated by normalizing the raw luminescence counts of the treated groups to those of the DMSO control groups. IC₅₀ values were calculated using sigmoidal dose‐response curve fitting with GraphPad Prism 9.0 software.

[4] = target: T1, ATR (Homo sapiens, UniProt Q13535); test: ATR kinase inhibition, Mobility Shift Assay; format: biochemical; settings: for IC50: n = 3, mean ± SD
T1 construct: purchased Eurofins 14-953
Experimental: The in vitro ATR kinase inhibitory activities were determined by ChemPartner Co., Ltd. (Shanghai, China) using the Mobility Shift Assay. The tested compound was dissolved with DMSO and diluted to 1000/3 × of the final desired highest inhibitor concentration in the reaction. […] The assay wells were incubated at 28 °C for 4 h.

[5] = target: PARP1 (Homo sapiens, UniProt P09874); test: PARP enzymatic inhibition ELISA (PARP1); format: biochemical; settings: for IC50: n = 3, mean ± SD
Experimental: The PARP activity assay was performed by ChemPartner (Shanghai, China). Each well was precoated with histone (final conc.: 100 ng mL^−1) diluted in PBS buffer (contains 10 mmol L^−1 NaH2PO4 and 150 mmol L^−1 NaCl, pH 7.4) by incubation at 4 °C overnight. […] The reaction was initiated by the addition of 10 µL of PARP (final conc.: 0.007 nM/well) at room temperature for 60 min. Add 20 µL of anti‐Poly/Mono‐ADP Ribose Rabbit mAb. Incubate for 1.5 h at room temperature and wash the plate three times using PBST buffer. […] Incubate for 1 h at room temperature and wash the plate three times using PBST buffer. Add 25 µL Femto‐ECL Substrate A and Femto‐ECL Substrate B (1:1) mix. Immediately read chemiluminescence on Envision (Revvity, USA).

[6] = system: TNBC cells (MDA‐MB‐231, MDA‐MB‐468, MDA‐MB‐436); test: Anti‐proliferative activity across three TNBC cell lines (summary); format: cell-based
Experimental: as §3, with “Cells were grown at 37 °C, under 95% air and 5% CO₂ until they reached about 70% confluence and were subcultured at least twice before the experiment. Cells were seeded at a density of 1000 cells/well in two 384‐well white plates, and the plates were placed in a 5% CO₂ incubator overnight. Growth” for “Growth”

[7] = system: MCF‐10A; test: Cell growth inhibition, normal breast cell line; format: cell-based; settings: Homo sapiens, MCF-10A; @30 µM; read-out: MCF‐10A inhibitory rate at certain concentration
Experimental: as §3

[8] = system: MCF‐7; test: Cell growth inhibition, CellTiter‐Glo (CTG); format: cell-based; settings: Homo sapiens, MCF7; n = 3
Experimental: as §3

[9] = system: MDA‐MB‐453; test: Cell growth inhibition, CellTiter‐Glo (CTG); format: cell-based; settings: Homo sapiens, MDA-MB-453; n = 3; read-out: IC50 MAD‐MB‐453
Experimental: as §3

[10] = system: MDA‐MB‐468 cells; test: Cell cycle assay, flow cytometry (PI); format: cell-based; settings: MDA‐MB‐468, 48 h; A7, B8 0.5 and 1.0 µM, controls 1.0 µM
Experimental: The cell cycle analysis was performed with cells seeded in 6‐well plates in growth media. The cells were allowed to attach overnight (8 h). The cultures were treated with different tested drugs for 48 h. After treatment, cells were collected and fixed with 70% pre‐cold ethanol in PBS and stored at −20 °C overnight. Then washed the cells with PBS twice, and incubated with 100 µg mL^−1 RNase A at 37 °C for 1 h, stained with propidium iodide for 30 min avoid light at room temperature. The stained cells were analyzed by flow cytometry. The percentages of cells in the G1, S, and G2/M phases were determined. The data were analyzed by FlowJo software (Tree Star, Inc., Ashland, OR).

[11] = Homo sapiens, MDA-MB-436, 120 h

PARP1, sequence (P09874 whole entry): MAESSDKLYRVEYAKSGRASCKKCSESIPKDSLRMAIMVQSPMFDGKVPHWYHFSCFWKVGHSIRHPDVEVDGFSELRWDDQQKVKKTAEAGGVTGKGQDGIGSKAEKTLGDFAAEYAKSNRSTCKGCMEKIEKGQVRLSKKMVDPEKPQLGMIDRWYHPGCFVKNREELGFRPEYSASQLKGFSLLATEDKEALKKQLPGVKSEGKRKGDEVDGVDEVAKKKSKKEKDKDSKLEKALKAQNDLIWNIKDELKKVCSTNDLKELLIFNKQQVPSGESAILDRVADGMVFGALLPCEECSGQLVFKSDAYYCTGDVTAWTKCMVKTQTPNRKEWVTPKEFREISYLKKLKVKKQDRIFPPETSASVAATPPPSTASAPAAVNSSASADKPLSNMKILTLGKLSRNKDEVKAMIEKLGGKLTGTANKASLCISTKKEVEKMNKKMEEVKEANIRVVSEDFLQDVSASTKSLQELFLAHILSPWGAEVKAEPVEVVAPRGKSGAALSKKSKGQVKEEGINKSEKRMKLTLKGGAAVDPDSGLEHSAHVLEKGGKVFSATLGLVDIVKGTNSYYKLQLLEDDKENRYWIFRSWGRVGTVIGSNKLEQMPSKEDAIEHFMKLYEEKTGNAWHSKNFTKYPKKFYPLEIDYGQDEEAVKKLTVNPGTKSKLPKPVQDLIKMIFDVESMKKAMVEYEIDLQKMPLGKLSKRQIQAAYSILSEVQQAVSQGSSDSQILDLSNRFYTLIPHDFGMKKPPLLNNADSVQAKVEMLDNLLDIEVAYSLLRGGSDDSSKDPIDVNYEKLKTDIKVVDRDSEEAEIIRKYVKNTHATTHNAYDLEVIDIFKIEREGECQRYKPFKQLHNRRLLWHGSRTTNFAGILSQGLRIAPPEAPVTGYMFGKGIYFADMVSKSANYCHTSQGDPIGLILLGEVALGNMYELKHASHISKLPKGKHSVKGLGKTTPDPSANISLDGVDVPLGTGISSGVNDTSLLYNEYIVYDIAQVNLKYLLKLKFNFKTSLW
T1 sequence (Q13535 whole entry): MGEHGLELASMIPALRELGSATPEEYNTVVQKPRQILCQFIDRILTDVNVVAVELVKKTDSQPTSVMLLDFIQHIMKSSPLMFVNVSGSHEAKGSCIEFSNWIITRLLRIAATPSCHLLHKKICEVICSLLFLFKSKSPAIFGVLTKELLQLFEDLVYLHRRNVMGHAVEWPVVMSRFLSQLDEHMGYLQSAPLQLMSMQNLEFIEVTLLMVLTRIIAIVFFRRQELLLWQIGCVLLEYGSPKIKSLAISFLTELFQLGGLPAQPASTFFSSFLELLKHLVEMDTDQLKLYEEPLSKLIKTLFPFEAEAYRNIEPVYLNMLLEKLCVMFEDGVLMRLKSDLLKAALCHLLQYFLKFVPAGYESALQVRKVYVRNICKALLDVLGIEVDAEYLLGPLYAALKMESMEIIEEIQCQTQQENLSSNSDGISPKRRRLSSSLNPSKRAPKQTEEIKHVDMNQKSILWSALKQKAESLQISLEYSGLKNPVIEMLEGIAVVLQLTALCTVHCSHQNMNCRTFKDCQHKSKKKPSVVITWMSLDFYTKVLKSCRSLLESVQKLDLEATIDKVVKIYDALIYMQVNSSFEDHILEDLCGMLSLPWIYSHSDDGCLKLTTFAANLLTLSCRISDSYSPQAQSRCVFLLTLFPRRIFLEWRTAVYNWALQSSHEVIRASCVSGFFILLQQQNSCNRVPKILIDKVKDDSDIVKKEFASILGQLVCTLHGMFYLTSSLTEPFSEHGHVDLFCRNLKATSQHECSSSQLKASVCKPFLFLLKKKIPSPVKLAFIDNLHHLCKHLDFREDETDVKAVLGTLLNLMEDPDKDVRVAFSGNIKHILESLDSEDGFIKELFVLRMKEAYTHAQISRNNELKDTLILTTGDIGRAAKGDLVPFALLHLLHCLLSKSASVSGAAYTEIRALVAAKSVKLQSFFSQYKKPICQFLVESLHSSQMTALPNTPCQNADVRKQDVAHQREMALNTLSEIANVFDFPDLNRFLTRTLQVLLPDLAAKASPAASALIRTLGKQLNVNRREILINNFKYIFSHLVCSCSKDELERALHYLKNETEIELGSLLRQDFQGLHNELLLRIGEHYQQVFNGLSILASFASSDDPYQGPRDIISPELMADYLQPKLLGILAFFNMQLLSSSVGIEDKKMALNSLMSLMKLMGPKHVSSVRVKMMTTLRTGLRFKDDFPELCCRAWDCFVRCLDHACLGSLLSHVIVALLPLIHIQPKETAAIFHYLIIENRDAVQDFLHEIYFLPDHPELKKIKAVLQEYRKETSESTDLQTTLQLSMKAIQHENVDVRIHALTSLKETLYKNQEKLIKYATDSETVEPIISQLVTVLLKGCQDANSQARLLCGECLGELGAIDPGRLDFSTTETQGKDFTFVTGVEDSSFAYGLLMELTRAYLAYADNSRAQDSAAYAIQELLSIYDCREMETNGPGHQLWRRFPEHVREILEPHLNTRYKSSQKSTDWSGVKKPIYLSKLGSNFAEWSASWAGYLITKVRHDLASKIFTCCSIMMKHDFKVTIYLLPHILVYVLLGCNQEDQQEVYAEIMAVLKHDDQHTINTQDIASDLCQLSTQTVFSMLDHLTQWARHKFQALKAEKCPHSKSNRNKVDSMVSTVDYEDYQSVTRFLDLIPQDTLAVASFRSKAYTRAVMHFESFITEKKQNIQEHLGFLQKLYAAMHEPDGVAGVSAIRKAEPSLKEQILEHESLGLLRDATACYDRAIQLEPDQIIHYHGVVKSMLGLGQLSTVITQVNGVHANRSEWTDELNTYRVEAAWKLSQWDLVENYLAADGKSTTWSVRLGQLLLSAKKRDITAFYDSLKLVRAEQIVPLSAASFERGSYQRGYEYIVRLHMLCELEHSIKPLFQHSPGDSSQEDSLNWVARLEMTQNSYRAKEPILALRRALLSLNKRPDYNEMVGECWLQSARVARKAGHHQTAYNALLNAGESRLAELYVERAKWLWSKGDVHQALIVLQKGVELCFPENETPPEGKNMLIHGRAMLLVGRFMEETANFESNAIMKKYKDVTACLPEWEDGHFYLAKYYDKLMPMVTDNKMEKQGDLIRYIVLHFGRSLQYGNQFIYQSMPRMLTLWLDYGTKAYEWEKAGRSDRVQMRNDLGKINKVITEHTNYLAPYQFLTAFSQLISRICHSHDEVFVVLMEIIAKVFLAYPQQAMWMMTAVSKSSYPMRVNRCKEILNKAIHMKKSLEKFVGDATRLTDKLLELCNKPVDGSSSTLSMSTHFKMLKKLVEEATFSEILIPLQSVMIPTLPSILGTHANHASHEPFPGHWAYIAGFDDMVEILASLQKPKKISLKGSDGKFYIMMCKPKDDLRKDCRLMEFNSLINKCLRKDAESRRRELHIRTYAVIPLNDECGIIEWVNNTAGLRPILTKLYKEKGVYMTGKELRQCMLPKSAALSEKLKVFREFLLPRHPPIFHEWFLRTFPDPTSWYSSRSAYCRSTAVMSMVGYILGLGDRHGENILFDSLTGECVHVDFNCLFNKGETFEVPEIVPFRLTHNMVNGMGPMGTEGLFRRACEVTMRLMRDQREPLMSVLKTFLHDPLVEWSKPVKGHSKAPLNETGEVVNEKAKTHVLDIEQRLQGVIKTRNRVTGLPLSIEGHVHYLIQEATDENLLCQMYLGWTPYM
T1 sequence (Q8WXE1 whole entry partner): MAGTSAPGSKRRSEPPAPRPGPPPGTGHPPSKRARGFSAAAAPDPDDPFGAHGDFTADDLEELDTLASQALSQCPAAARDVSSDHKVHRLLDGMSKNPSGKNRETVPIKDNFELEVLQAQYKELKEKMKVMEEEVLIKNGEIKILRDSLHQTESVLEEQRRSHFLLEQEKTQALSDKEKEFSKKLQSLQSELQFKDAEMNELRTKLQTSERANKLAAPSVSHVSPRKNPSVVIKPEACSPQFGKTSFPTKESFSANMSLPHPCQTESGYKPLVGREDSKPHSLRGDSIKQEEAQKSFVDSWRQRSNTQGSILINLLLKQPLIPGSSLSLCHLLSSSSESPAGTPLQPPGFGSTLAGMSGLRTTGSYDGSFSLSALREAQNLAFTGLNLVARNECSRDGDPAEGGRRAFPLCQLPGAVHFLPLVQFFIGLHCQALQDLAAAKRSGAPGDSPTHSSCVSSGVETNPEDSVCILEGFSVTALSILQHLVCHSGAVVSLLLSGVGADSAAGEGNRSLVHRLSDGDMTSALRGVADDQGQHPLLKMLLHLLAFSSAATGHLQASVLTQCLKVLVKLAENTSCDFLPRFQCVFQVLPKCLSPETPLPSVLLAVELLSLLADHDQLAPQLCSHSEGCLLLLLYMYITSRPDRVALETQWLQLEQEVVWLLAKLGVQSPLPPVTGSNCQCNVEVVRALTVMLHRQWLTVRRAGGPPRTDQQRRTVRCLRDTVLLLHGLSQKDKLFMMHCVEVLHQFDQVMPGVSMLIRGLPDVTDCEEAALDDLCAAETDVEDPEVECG

SMILES	IC50 [1] [nM]	IC50 [2] [nM]	inhibition at 5 µM ([3]; Homo sapiens) [%]	IC50 [4] [nM]	IC50 [5] [nM]	activity against TNBC cells (SAR summary in words, Figure 7) [6]	IC50 [3, 11] [nM]	activity against ATR (SAR summary in words, Figure 7) [4]	activity against PARP1 (SAR summary in words, Figure 7) [5]	IC50 [3] [nM]	inhibition at 30 µM [7] [%]	IC50 [8] [nM]	IC50 [9] [nM]	effect on cell cycle distribution [10]
C[C@@H]1COCCN1c1cc(CNC(=O)CCNC(=O)c2cc(Cc3n[nH]c(=O)c4ccccc34)ccc2F)nc(-c2ccnc3[nH]ccc23)n1 [Compound B3, (R)‐2‐fluoro‐N‐(3‐(((6‐(3‐methylmorpholino)‐2‐(1H‐pyrrolo[2,3‐b]pyridin‐4‐yl)pyrimidin‐4‐yl)methyl)amino)‐3‐oxopropyl)‐5‐((4‐oxo‐3,4‐dihydrophthalazin‐1‐yl)methyl)benzamide]	14300 ± 1400	17700 ± 530	34.9	347 ± 15.7	9.5 ± 1.8									
C[C@@H]1COCCN1c1cc(CNC(=O)c2cc(Cc3n[nH]c(=O)c4ccccc34)ccc2F)nc(-c2ccnc3[nH]ccc23)n1 [Compound B1, (R)‐2‐fluoro‐N‐((6‐(3‐methylmorpholino)‐2‐(1H‐pyrrolo[2,3‐b]pyridin‐4‐yl)pyrimidin‐4‐yl)methyl)‐5‐((4‐oxo‐3,4‐dihydrophthalazin‐1‐yl)methyl)benzamide]	3050 ± 760	7880 ± 1140		39.5 ± 3.7	420 ± 31	weak activity	910 ± 50	moderate activity	moderate activity					
C[C@@H]1COCCN1c1cc(C2([S@](C)(=N)=O)CC2)nc(-c2cc[nH]c3nccc2-3)n1 [8 (AZD6738), Ceralasertib, reference compound]		18600 ± 1750					3800			3840 ± 520	25.9	2010 ± 430	1460 ± 170	did not significantly change the cell cycle distribution
C[C@@H]1COCCN1c1cc(CNS(=O)(=O)C2CCN(C(=O)c3cc(Cc4n[nH]c(=O)c5ccccc45)ccc3F)CC2)nc(-c2ccnc3[nH]ccc23)n1 [Compound B6, (R)‐1‐(2‐fluoro‐5‐((4‐oxo‐3,4‐dihydrophthalazin‐1‐yl)methyl)benzoyl)‐N‐((6‐(3‐methylmorpholino)‐2‐(1H‐pyrrolo[2,3‐b]pyridin‐4‐yl)pyrimidin‐4‐yl)methyl)piperidine‐4‐sulfonamide]	3960 ± 2050	700 ± 70		112 ± 5.3	0.46 ± 0.1		780 ± 80							
C[C@@H]1COCCN1c1cc(C2(NC(=O)C3CCN(C(=O)c4cc(Cc5n[nH]c(=O)c6ccccc56)ccc4F)CC3)CC2)nc(-c2ccnc3[nH]ccc23)n1 [Compound A5, (R)‐1‐(2‐fluoro‐5‐((4‐oxo‐3,4‐dihydrophthalazin‐1‐yl)methyl)benzoyl)‐N‐(1‐(6‐(3‐methylmorpholino)‐2‐(1H‐pyrrolo[2,3‐b]pyridin‐4‐yl)pyrimidin‐4‐yl)cyclopropyll)piperidine‐4‐carboxamide]	3630 ± 1410	570 ± 80		143 ± 11	1.08 ± 0.74		570 ± 40							
C[C@@H]1COCCN1c1cc(CNC(=O)C2CCN(C(=O)c3cc(Cc4n[nH]c(=O)c5ccccc45)ccc3F)CC2)nc(-c2ccnc3[nH]ccc23)n1 [Compound B5, (R)‐1‐(2‐fluoro‐5‐((4‐oxo‐3,4‐dihydrophthalazin‐1‐yl)methyl)benzoyl)‐N‐((6‐(3‐methylmorpholino)‐2‐(1H‐pyrrolo[2,3‐b]pyridin‐4‐yl)pyrimidin‐4‐yl)methyl)piperidine‐4‐carboxamide]	4480 ± 1080	1460 ± 100		36.7 ± 4.6	1.2 ± 0.3		1190 ± 230							
C[C@@H]1COCCN1c1cc(CNC(=O)CNC(=O)c2cc(Cc3n[nH]c(=O)c4ccccc34)ccc2F)nc(-c2ccnc3[nH]ccc23)n1 [Compound B2, (R)‐2‐fluoro‐N‐(2‐(((6‐(3‐methylmorpholino)‐2‐(1H‐pyrrolo[2,3‐b]pyridin‐4‐yl)pyrimidin‐4‐yl)methyl)amino)‐2‐oxoethyl)‐5‐((4‐oxo‐3,4‐dihydrophthalazin‐1‐yl)methyl)benzamide]	10580 ± 10	8410 ± 610	40.3	168 ± 7.8	16 ± 2.4									
C[C@@H]1COCCN1c1cc(C2(NC(=O)c3cc(Cc4n[nH]c(=O)c5ccccc45)ccc3F)CC2)nc(-c2ccnc3[nH]ccc23)n1 [Compound A1, (R)‐2‐fluoro‐N‐(1‐(6‐(3‐methylmorpholino)‐2‐(1H‐pyrrolo[2,3‐b]pyridin‐4‐yl)pyrimidin‐4‐yl)cyclopropyl)‐5‐((4‐oxo‐3,4‐dihydrophthalazin‐1‐yl)methyl)benzamide]	5260 ± 1140	8540 ± 1070		215 ± 22	1150 ± 43	weak activity	2920 ± 2050	moderate activity	moderate activity					
C[C@@H]1COCCN1c1cc(CNC(=O)N2CCN(C(=O)c3cc(Cc4n[nH]c(=O)c5ccccc45)ccc3F)CC2)nc(-c2ccnc3[nH]ccc23)n1 [Compound B7, (R)‐4‐(2‐fluoro‐5‐((4‐oxo‐3,4‐dihydrophthalazin‐1‐yl)methyl)benzoyl)‐N‐((6‐(3‐methylmorpholino)‐2‐(1H‐pyrrolo[2,3‐b]pyridin‐4‐yl)pyrimidin‐4‐yl)methyl)piperazine‐1‐carboxamide]	1600 ± 90	960 ± 40		78.8 ± 6.2	0.76 ± 0.09		1290 ± 560							
C[C@@H]1COCCN1c1cc(C2(NC(=O)N3CCN(C(=O)c4cc(Cc5n[nH]c(=O)c6ccccc56)ccc4F)CC3)CC2)nc(-c2ccnc3[nH]ccc23)n1 [Compound A6, (R)‐4‐(2‐fluoro‐5‐((4‐oxo‐3,4‐dihydrophthalazin‐1‐yl)methyl)benzoyl)‐N‐(1‐(6‐(3‐methylmorpholino)‐2‐(1H‐pyrrolo[2,3‐b]pyridin‐4‐yl)pyrimidin‐4‐yl)cyclopropyll)piperazine‐1‐carboxamide]	4160 ± 1090	1150 ± 10		> 500	0.98 ± 0.88		590 ± 10							
C[C@@H]1COCCN1c1cc(CNC(=O)CCCNC(=O)c2cc(Cc3n[nH]c(=O)c4ccccc34)ccc2F)nc(-c2ccnc3[nH]ccc23)n1 [Compound B4, (R)‐2‐fluoro‐N‐(4‐(((6‐(3‐methylmorpholino)‐2‐(1H‐pyrrolo[2,3‐b]pyridin‐4‐yl)pyrimidin‐4‐yl)methyl)amino)‐4‐oxobutyl)‐5‐((4‐oxo‐3,4‐dihydrophthalazin‐1‐yl)methyl)benzamide]	14300 ± 3910	6830 ± 100	47	111 ± 8.1	6.2 ± 0.9									
